Experimental findings from patent US8748348B2, “3-(3,4-dihydro-2H-benzo [1,4]oxazin-6-yl)-1H-pyrimidin-2,4-dione compounds as herbicides” (BASF SE, priority 2009, dated 2014) are described below.

SMILES strings stand for the structures.

Test [1] relates to Pharbitis purpurea. Description: greenhouse post-emergence herbicidal test. The format is in vivo. The conditions noted are these: post-emergence method, application rate 6.25 g/ha. The source says:
(§1) The culture containers used were plastic flowerpots containing loamy sand with approximately 3.0% of humus as the substrate. The seeds of the test plants were sown separately for each species.
(§2) For the post-emergence treatment, the test plants were first grown to a height of 3 to 15 cm, depending on the plant habit, and only then treated with the active ingredients which had been suspended or emulsified in water. For this purpose, the test plants were either sown directly and grown in the same containers, or they were first grown separately as seedlings and transplanted into the test containers a few days prior to treatment.
(§3) Depending on the species, the plants were kept at 10-25° C. or 20-35° C. The test period extended over 2 to 4 weeks. During this time, the plants were tended, and their response to the individual treatments was evaluated.
(§4) Evaluation was carried out using a scale from 0 to 100. 100 means no emergence of the plants, or complete destruction of at least the aerial moieties, and 0 means no damage, or normal course of growth. A good herbicidal activity is given at values of at least 70 and a very good herbicidal activity is given at values of at least 85.

For another test, the system named is Chenopodium album. Nature of the test: greenhouse post-emergence herbicidal test. The conditions noted are these: post-emergence method, application rate 6.25 g/ha. The test is classed as in vivo.
Excerpt: as §1, §2, §3, §4

In the next test the test system is Abutilon theophrasti. Nature of the test: greenhouse post-emergence herbicidal test. The format is in vivo. The note with it: post-emergence method, application rate 6.25 g/ha.
Excerpt: as §1, §2, §3, §4

For test [2], the system named is Amaranthus retroflexus. Description: greenhouse post-emergence herbicidal test. The format is in vivo. The conditions noted are these: post-emergence method, application rate 6.25 g/ha.
Excerpt: as §1, §2, §3, §4

In the next test the test system is BRAPL. Description: greenhouse post-emergence herbicidal test. The test is classed as in vivo, Brachiaria plantaginea. The conditions noted are these: scale from 0 to 100.
Excerpt: as §1, §2, §3, §4

In the next test the test system is COMBE. Description: greenhouse post-emergence herbicidal test. The note with it: scale from 0 to 100. The format is in vivo, Commenline benghalensis.
Excerpt: as §1, §2, §3, §4

For a further test, the system named is ELEIN. Nature of the test: greenhouse post-emergence herbicidal test. The format is in vivo, Eleusine indica. The note with it: scale from 0 to 100.
Excerpt: as §1, §2, §3, §4

In a further test the test system is ERICA. Description: greenhouse post-emergence herbicidal test. The conditions noted are these: scale from 0 to 100. The test is classed as in vivo, Erigeron canadensis.
Excerpt: as §1, §2, §3, §4

The subject of another test is BRADE. Nature of the test: greenhouse post-emergence herbicidal test. The test is classed as in vivo, Brachiaria deflexa. The conditions noted are these: scale from 0 to 100.
Excerpt: as §1, §2, §3, §4

Another test concerns Setaria faberi. Nature of the test: greenhouse pre-emergence herbicidal test. The test is classed as in vivo. The conditions noted are these: application rate 0.025 kg/ha, eight days after treatment (greenhouse).
Excerpt: as §1
(§5) For the pre-emergence treatment, the active ingredients, which had been suspended or emulsified in water, were applied directly after sowing by means of finely distributing nozzles. The containers were irrigated gently to promote germination and growth and subsequently covered with transparent plastic hoods until the plants had rooted. This cover caused uniform germination of the test plants, unless this has been impaired by the active ingredients.
as §3, §4

The next test relates to Erigeron Canadensis. Nature of the test: greenhouse pre-emergence herbicidal test. The format is in vivo. The note with it: pre-emergence method, application rate 6.25 g/ha.
Excerpt: as §1, §5, §3, §4

In test [3] the test system is Pharbitis purpurea. Description: greenhouse pre-emergence herbicidal test. The format is in vivo. The conditions noted are these: application rate 0.025 kg/ha, eight days after treatment (greenhouse).
Excerpt: as §1, §5, §3, §4

The test system of test [4] is Amaranthus retroflexus. Nature of the test: greenhouse pre-emergence herbicidal test. The test is classed as in vivo. The note with it: pre-emergence method, application rate 6.25 g/ha.
Excerpt: as §1, §5, §3, §4

The subject of a further test is Solanum nigrum. Nature of the test: greenhouse pre-emergence herbicidal test. The format is in vivo. The conditions noted are these: pre-emergence method, application rate 6.25 g/ha.
Excerpt: as §1, §5, §3, §4

In a further test the test system is DIGSA. Nature of the test: greenhouse post-emergence herbicidal test. The test is classed as in vivo, Digitaria sanguinales. The conditions noted are these: scale from 0 to 100.
Excerpt: as §1, §2, §3, §4

For the next test, the system named is SETVI. Description: greenhouse post-emergence herbicidal test. The format is in vivo, Setaria viridis. The note with it: scale from 0 to 100.
Excerpt: as §1, §2, §3, §4

`C#CCN1C(=O)C(F)(F)Oc2cc(F)c(-n3c(=O)cc(C(F)(F)F)n(C)c3=O)cc21` [Ia48, 1-Methyl-6-trifluoromethyl-3-(2,2,7-trifluoro-3-oxo-4-prop-2-ynyl-3,4-dihydro-2H-benzo[1,4]oxazin-6-yl)-1H-pyrimidine-2,4-dione]: the “herbicidal activity against Pharbitis purpurea” value with Pharbitis purpurea [1] was “very good herbicidal activity (a very good herbicidal activity is given at values of at least 85)”. The “herbicidal activity against Chenopodium album” value in the test on Chenopodium album was “very good herbicidal activity (a very good herbicidal activity is given at values of at least 85)”. Moreover, in the test on Abutilon theophrasti, the “herbicidal activity against Abutilon theophrasti” value was “very good herbicidal activity (a very good herbicidal activity is given at values of at least 85)”. Moreover, the “herbicidal activity against Amaranthus retroflexus” value in the test on Amaranthus retroflexus [2] and in the test with Amaranthus retroflexus [4] was “very good herbicidal activity (a very good herbicidal activity is given at values of at least 85)” in each case. Moreover, in the test on BRAPL (Ia48 6.25 g/ha a.s.), the “herbicidal activity against BRAPL found” value is listed as 60. Besides, in the test on COMBE (Ia48 3.12 g/ha a.s.), the “herbicidal activity against COMBE found” value was 60. Further, the “herbicidal activity against ELEIN found” value in the test on ELEIN (Ia48 3.12 g/ha a.s.) is on record as 20. For the same molecule, the “herbicidal activity against ERICA found” value in the test with ERICA (Ia48 12.5 g/ha a.s.) worked out at 90. The “herbicidal activity against BRADE found” value in the test on BRADE (Ia48 6.25 g/ha a.s.) is given as 85. Moreover, the “damages, unwanted plants Setaria faberi” value with Setaria faberi was found to be 98. Further, in the test with Erigeron Canadensis, the “herbicidal activity against Erigeron Canadensis” value is “very good herbicidal activity (a very good herbicidal activity is given at values of at least 85)”. Besides, the “damages, unwanted plants Pharbitis purpurea” value with Pharbitis purpurea [3] came to 90. Moreover, in the test on Solanum nigrum, the “herbicidal activity against Solanum nigrum” value is recorded as “very good herbicidal activity (a very good herbicidal activity is given at values of at least 85)”. Also, the “herbicidal activity against DIGSA found” value with DIGSA (Ia48 6.25 g/ha a.s.) is listed as 65. Also, the “herbicidal activity against SETVI found” value in the test with SETVI (Ia48 12.5 g/ha a.s.) is 95.
Regarding `CC(C)N(C)S(=O)(=O)NC(=O)c1cc(-n2c(=O)cc(C(F)(F)F)n(C)c2=O)c(F)cc1Cl` [B.76, saflufenacil], the “herbicidal activity against ERICA found” value in the test with ERICA (B.76 1.56 g/ha a.s.) stood at 45. Moreover, the “herbicidal activity against SETVI found” value with SETVI (B.76 1.56 g/ha a.s.) was found to be 0.
`CC(C)N.O=C(O)CNCP(=O)(O)O` [B.98, glyphosate-isopropylammonium]: in the test on ELEIN (B.98 135 g/ha a.s.), the “herbicidal activity against ELEIN found” value amounted to 60. Also, in the test with ERICA (B.98 68 g/ha a.s.), the “herbicidal activity against ERICA found” value amounted to 80. In addition, the “herbicidal activity against SETVI found” value with SETVI (B.98 68 g/ha a.s.) is recorded as 90.
For `C#CCN1C(=O)COc2cc(F)c(-n3c(=O)cc(C(F)(F)F)n(C)c3=O)cc21` [example 39, reference compound], the “damages, unwanted plants Setaria faberi” value in the test on Setaria faberi was 90. Moreover, the “damages, unwanted plants Pharbitis purpurea” value in the test with Pharbitis purpurea [3] was 80.
`Cn1nc(C(F)(F)F)c(CS(=O)(=O)C2=NOC(C)(C)C2)c1OC(F)F` [B.118, pyroxasulfone, reference compound]: the “herbicidal activity against DIGSA found” value in the test with DIGSA (B.118 12.5 g/ha a.s.) came to 35.
For the molecule `Cc1c(C(=O)c2cnn(C)c2O)ccc(S(C)(=O)=O)c1C1=NOCC1` [B.93, topramezone, reference compound], the “herbicidal activity against BRADE found” value with BRADE (B.93 3.1 g/ha a.s.) was 65.
Take `CCNc1nc(Cl)nc(NC(C)C)n1` [B.54, atrazine, reference compound]: the “herbicidal activity against BRAPL found” value in the test on BRAPL (B.54 250 g/ha a.s.) worked out at 20. Besides, the “herbicidal activity against COMBE found” value with COMBE (B.54 250 g/ha a.s.) came out at 70.
